Laboratory results as given in patent US9382290B2, “Aptamer-modified polymeric materials for the binding of factors in a wound environment” (KCI LICENSING, INC., priority 2011, dated 2016).
Where no end group is shown, it is not given here. [ ]: non-standard residue; d: D form. AEEA = NCCOCCOCC(=O)O

Legend:
PDGF = assay: Binding of P-16 to PDGF (statement)
VEGF [1] = assay: Binding of P-16 to VEGF (statement)
Target sequence in this assay (P15692 207-311 limits assumed): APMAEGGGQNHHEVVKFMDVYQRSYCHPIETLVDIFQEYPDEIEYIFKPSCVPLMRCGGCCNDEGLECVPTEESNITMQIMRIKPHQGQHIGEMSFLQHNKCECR

VEGF [2] = assay: VEGF capture by P16-linker-ROCF construct, elution and ELISA; format: binding
Method: C1 was ROCF alone; C2 was ROCF+EMCS−P16; C3 was ROCF−EMCS+P16; C4 was silanated ROCF alone; C5=silanated ROCF+EMCS−P16; C6 was silanated ROCF−EMCS+P16; 51 was 50× Sulfo-EMCS+P16; and S2 was 100× Sulfo-EMCS+P16. W=Final subsequent PBS wash. E1=50 mM Tris, 80 mM NaCl, 250 mM Imidazole, 45 min. […] E1 (right) indicates the amount of VEGF dislodged from the foam and peptide with an […] after the last wash. […] S2 bound 584 pg/mL, whereas C4 bound 321 pg/m. S2 has the highest concentration of EMCS and therefore the most covalently bound P16. […] Data are given as mean±standard deviation.
P16 was conjugated to ROCF, incubated with VEGF, washed stringently, then eluted with an […]. In this experiment, the test group (P16-linker-foam) bound 584 pg/mL, whereas the greatest negative control bound 321 pg/mL. Non-specific binding was expected due to the hydrophobic nature of both the ROCF and the target protein VEGF.
Target sequence in this assay (P15692 207-320 limits assumed): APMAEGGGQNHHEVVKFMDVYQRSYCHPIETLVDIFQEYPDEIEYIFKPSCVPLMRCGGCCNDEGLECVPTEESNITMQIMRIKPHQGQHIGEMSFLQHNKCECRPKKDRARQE

GM-CSF = GM-CSF (Homo sapiens, UniProt P04141); assay: GM-CSF capture by P22-linker-ROCF construct, elution and ELISA; format: binding; conditions: upon elution; sample with the most capture peptide vs ROCF alone
Method: FIG. 11 provides elution results for the P22/GM-CSF experiment. P22 was obtained from the Bachem Americas Inc. 2010 peptide catalog. P22 is a GM-CSF antagonist that binds GM-CSF in an inhibitory manner. Briefly, 330 nmol P22 was conjugated to a polyurethane-based ROCF via Sulfo-EMCS chemistry. The P22-linker-foam construct was incubated with 1 μg GM-CSF overnight, washed five times, and subjected to stringent elutions. […] Upon elution, the sample with the most capture peptide, S3, outperformed ROCF alone by 49%. […] Samples S1-S3 all contained peptide-linker-foam with Sulfo-EMCS concentration increasing from S1 to S3 (S1=10× Sulfo-EMCS+P22; S2=25× Sulfo-EMCS+P22 and S3=50× Sulfo-EMCS+P22), C1 was ROCF alone, C2 was Silanated ROCF+EMCS−P22 and C3 was Silanated ROCF−EMCS+P22. There were no positive controls available for this experiment, as no technology has yet been proven to covalently conjugate peptides to polyurethane. However, positive controls were later developed for subsequent experiments based on experimental results. Data are given as mean±standard deviation.
With the -Sil bond, a “capture peptide” was next conjugated to the amino-functionalized ROCF. To do so, Sulfo-EMCS chemistry developed in Example 2 was used to conjugate a commercially available GM-CSF antagonist capture peptide, P22, to ROCF. […] The eluted GM-CSF was quantified via ELISA (FIG. 11). […]

[3] = target: granulocyte macrophage colony stimulating factor (GM-CSF) (Homo sapiens, UniProt P04141); assay: GM-CSF capture by P22-modified silylated 30 PHR chitosan foam, elution and ELISA; format: binding; conditions: 333 ng/mL GM-CSF incubated 24 hr; unbound washed off; eluted with imidazole-based buffer E1; 30 PHR chitosan foam silylated with compound 602
Method: FIG. 8: Silylated with compound 602, 30 PHR Chitosan/P-22 captures more granulocyte macrophage colony stimulating factor (GM-CSF). Briefly, 333 ng/mL of GM-CSF was incubated with the samples for 24 hr. The unbound protein was washed off then the samples were eluted with an imidazole-based buffer, E1. The samples were cleaned up via buffer exchange with PBS and quantified by ELISA.
The test procedure used included the steps listed below: All buffers and reagents were prepared in advance, except the Sulfo-EMCS, which was reconstituted immediately before use. See Sulfo-EMCS Product Instructions (Thermo Scientific-Pierce), which is incorporated by reference herein in its entirety. • 1.1. BupH Borate Buffer: Two packs BupH Borate Buffer powderwere added to 1 L DI H2O as per manufacturer's instructions. • 1.2. Conjugation Buffer, BupH Borate Buffer/5 mM EDTA was prepared by dissolving 146 mg EDTA in 500 mL BupH Borate Buffer. • 1.3. Sulfo-EMCS, allowed to warm to RT, was reconstituted immediately before performing the Sulfo-EMCS addition step. […]
• 1.8. • 1.8.1. […] Use the coupons immediately for growth factor binding or transfer the moist coupons to a capped vial and store them at 4° C. until ready for use for no longer than. […] The unbound proteins were washed off then the samples were eluted with an imidazole-based buffer, E1 before a buffer exchange with PBS and quantification via ELISA.

Sequence of GM-CSF (P04141 18-144, species assumed): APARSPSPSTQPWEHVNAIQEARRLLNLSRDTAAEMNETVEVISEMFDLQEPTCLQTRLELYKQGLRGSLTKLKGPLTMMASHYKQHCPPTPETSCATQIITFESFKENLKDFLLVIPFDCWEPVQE
Sequence of granulocyte macrophage colony stimulating factor (GM-CSF) (P04141 18-144, species assumed): as above

Substance | binding to PDGF (PDGF) | binding to VEGF (VEGF [1]) | VEGF bound (elution E1, ELISA) (VEGF [2]; P16 conjugated to silanated ROCF via Sulfo-EMCS, incubated with VEGF, washed, E1 = 50 mM Tris, 80 mM NaCl, 250 mM Imidazole, 45 min) [pg/mL] | more VEGF bound than greatest negative control (silanated ROCF, C4) (VEGF [2]; elution data) [%] | more GM-CSF captured than ROCF alone (GM-CSF) [%] | GM-CSF captured (eluted, quantified by ELISA) [3] [pg/mL]
GHQGQHIGQMS-AEEAc-Cys-NH2 (GHQGQHIGQMS[AEEA]C-NH2; N-terminus assumed; SMILES CC[C@H](C)[C@H](NC(=O)[C@H](Cc1c[nH]cn1)NC(=O)[C@H](CCC(N)=O)NC(=O)CNC(=O)[C@H](CCC(N)=O)NC(=O)[C@H](Cc1c[nH]cn1)NC(=O)CN)C(=O)NCC(=O)N[C@@H](CCC(N)=O)C(=O)N[C@@H](CCSC)C(=O)N[C@@H](CO)C(=O)NCCOCCOCC(=O)N[C@@H](CS)C(N)=O; listed as Homo sapiens) [P16, Anti-VEGF peptide designed de novo] | shown to bind | shown to bind | 584 | 82 |  | 
NAIQEARRLLNLSRD (listed as Homo sapiens) [P22, Commercially available anti-GM-CSF peptide (Bachem), GM-CSF antagonist] |  |  |  |  | 49 | 299
